Laboratory results as given in ChEMBL document CHEMBL1131509, “Synthesis and cytotoxicity of 2-acetyl-4,8-dihydrobenzodithiophene-4, 8-dione derivatives” (J Med Chem, 1998).
pIC50: −log10 of the molar value.

Key:
NCI-H23 = assay: in vitro inhibition of non-small-cell lung (NCI-H23) cancer cell line; format: functional; settings: Homo sapiens
Hs-578T = assay: in vitro inhibition of breast (HS 578T) cancer cell line; format: functional; settings: Homo sapiens
MDA-N = assay: in vitro inhibition of breast (MDA-N) cancer cell line; format: functional; settings: Homo sapiens
HL-60 = assay: in vitro inhibition of leukemia (HL-60(TB)) cancer cell line; format: functional; settings: Homo sapiens
SK-MEL-5 = assay: in vitro inhibition of melanoma (SK-MEL-5) cancer cell line; format: functional; settings: Homo sapiens
NCI-H522 = assay: in vitro inhibition of non-small-cell lung (NCI-H522) cancer cell line; format: functional; settings: Homo sapiens
LOX IMVI = assay: in vitro inhibition of melanoma(LOX IMVI) cancer cell line; format: functional; settings: Homo sapiens
Malme-3M = assay: in vitro inhibition of melanoma (MALME-3M) cancer cell line; format: functional; settings: Homo sapiens
OVCAR-8 = assay: in vitro inhibition of ovarian (OVCAR-8) cancer cell line; format: functional; settings: Homo sapiens
MDA-MB-435 = assay: in vitro inhibition of breast (MDA-MB-435) cancer cell line; format: functional; settings: Homo sapiens
SK-MEL-28 = assay: in vitro inhibition of melanoma (SK-MEL-28) cancer cell line; format: functional; settings: Homo sapiens
BT-549 [1] = assay: in vitro inhibition of breast (BT-549) cancer cell line; format: functional; settings: Homo sapiens
SK-MEL-2 [2] = assay: in vitro inhibition of melanoma (SK-MEL-2) cancer cell line; format: functional; settings: Homo sapiens
OVCAR-3 = assay: in vitro inhibition of ovarian (OVCAR-3) cancer cell line; format: functional; settings: Homo sapiens
UACC-62 = assay: in vitro inhibition of melanoma (UACC-62) cancer cell line; format: functional; settings: Homo sapiens
M14 = assay: in vitro inhibition of melanoma (M14) cancer cell line; format: functional; settings: Homo sapiens
UACC-257 = assay: in vitro inhibition of melanoma (UACC-257) cancer cell line; format: functional; settings: Homo sapiens
BT-549 [3] = assay: in vitro inhibition of breast (BT-549) cancer cell line; settings: Homo sapiens
SK-MEL-2 [4] = assay: cytotoxic activity against […] cancer cell line; format: functional, cell-based; settings: Homo sapiens
A549 = assay: cytotoxic activity against […] cancer cell line; format: functional, cell-based; settings: Homo sapiens
CAKI-1 = assay: cytotoxic activity against […] cancer cell line; format: functional, cell-based; settings: Homo sapiens
MCF7 = assay: cytotoxic activity against […] cancer cell line; format: functional, cell-based; settings: Homo sapiens
KB = assay: cytotoxic activity against […] cancer cell line; format: functional, cell-based; settings: Homo sapiens
HCT-8 = assay: cytotoxic activity against […] cancer cell line; format: functional, cell-based; settings: Homo sapiens
L1210 (1565) = assay: cytotoxic activity against leukemia (L-1210) cancer cell line; format: functional, cell-based; settings: Mus musculus
P388 = assay: cytotoxic activity against leukemia (P-388) cancer cell line; format: functional, cell-based; settings: Mus musculus

SMILES	GI50 (NCI-H23)	GI50 (Hs-578T)	GI50 (MDA-N)	GI50 (HL-60)	GI50 (SK-MEL-5)	GI50 (NCI-H522)	GI50 (LOX IMVI)	GI50 (Malme-3M)	GI50 (OVCAR-8)	GI50 (MDA-MB-435)	GI50 (SK-MEL-28)	GI50 (BT-549 [1])	GI50 (SK-MEL-2 [2])	GI50 (OVCAR-3)	GI50 (UACC-62)	GI50 (M14)	GI50 (UACC-257)	also measured
CC(O)c1cc2c(s1)C(=O)c1ccsc1C2=O (configuration not stated)	0.015 µM	0.11 µM	0.013 µM	0.015 µM	< 0.01 µM	0.12 µM	0.01 µM	0.016 µM	0.2 µM	< 0.01 µM	0.017 µM	0.078 µM	0.091 µM	0.024 µM	0.016 µM	0.015 µM	0.015 µM	
CC(=O)OC(C)c1cc2c(s1)C(=O)c1c(C(C)OC(C)=O)csc1C2=O (configuration not stated)	0.87 µM	2.1 µM	0.21 µM	0.068 µM	0.63 µM	< 0.01 µM	1.6 µM	0.19 µM	0.46 µM	0.19 µM	1.7 µM		1.6 µM	0.28 µM	1.1 µM	0.51 µM	0.63 µM	GI50 (BT-549 [3]): 2.1 µM
CC(=O)OC(C)c1cc2c(s1)C(=O)c1sccc1C2=O (configuration not stated)	0.22 µM	0.51 µM	0.019 µM	1.7 µM	0.11 µM	0.87 µM	0.21 µM	0.12 µM	1.4 µM	0.18 µM	0.65 µM	0.28 µM	0.42 µM	0.49 µM	1.4 µM	0.16 µM	0.21 µM	
CC(O)c1cc2c(s1)C(=O)c1sccc1C2=O (configuration not stated)	0.016 µM	0.058 µM	0.019 µM	0.069 µM	0.014 µM	0.12 µM	0.024 µM	0.019 µM	0.16 µM	0.016 µM	0.039 µM	0.035 µM	0.031 µM	0.12 µM	0.022 µM	0.015 µM	0.018 µM	
CC(=O)c1cc2c(s1)C(=O)c1sccc1C2=O	0.018 µM	0.036 µM	< 0.01 µM	< 0.01 µM	< 0.01 µM	0.017 µM	< 0.01 µM	0.016 µM	0.031 µM	< 0.01 µM	< 0.01 µM	0.018 µM	0.033 µM	< 0.01 µM	0.017 µM	0.017 µM	0.014 µM	
CC(O)c1cc2c(s1)C(=O)c1c(C(C)O)csc1C2=O (configuration not stated)	0.034 µM	0.32 µM	0.021 µM	0.011 µM	0.013 µM	0.3 µM	0.055 µM	0.028 µM	0.22 µM	0.018 µM	0.19 µM		0.11 µM	0.012 µM	0.032 µM	0.058 µM	0.062 µM	GI50 (BT-549 [3]): 0.16 µM
CC(=O)c1cc2c(s1)C(=O)c1scc(C(C)=O)c1C2=O	0.29 µM	0.28 µM	0.2 µM	< 0.01 µM	0.32 µM	0.38 µM	0.022 µM	0.22 µM	0.23 µM	0.23 µM	0.2 µM	0.91 µM	0.16 µM	0.03 µM	0.23 µM	0.44 µM	0.17 µM	
CC(=O)OC(C)c1cc2c(s1)C(=O)c1scc(C(C)OC(C)=O)c1C2=O (configuration not stated)	0.16 µM	0.25 µM	0.059 µM	0.65 µM	0.034 µM	0.2 µM	0.12 µM	0.13 µM	0.23 µM	0.021 µM	0.21 µM	0.2 µM	0.15 µM	0.27 µM	0.2 µM	0.12 µM	0.17 µM	
O=C1c2ccsc2C(=O)c2sccc21																		pIC50 (SK-MEL-2 [4]): 6.49; pIC50 (A549): 6.77; pIC50 (CAKI-1): 6.23; pIC50 (MCF7): > 7.07; pIC50 (KB): 6.57; pIC50 (HCT-8): 6.77
CC(O)c1cc2c(s1)C(=O)c1scc(C(C)O)c1C2=O (configuration not stated)	0.19 µM	0.32 µM	0.15 µM	0.44 µM	0.14 µM	0.4 µM	0.12 µM	0.15 µM	0.26 µM	0.16 µM	0.23 µM	0.2 µM	0.2 µM	0.36 µM	0.25 µM	0.16 µM	0.16 µM	
CC(=O)c1cc2c(s1)C(=O)c1c(C(C)=O)csc1C2=O	1.3 µM	2.4 µM	0.17 µM	0.053 µM	1.2 µM	0.53 µM	1.1 µM	0.13 µM	1.5 µM	0.18 µM	1.8 µM		1.7 µM	0.23 µM	2 µM	1.5 µM	0.56 µM	GI50 (BT-549 [3]): 1.7 µM
O=C1c2ccsc2C(=O)c2ccsc21																		pIC50 (L1210 (1565)): 5.77; pIC50 (A549): 6.59; pIC50 (CAKI-1): 5.82; pIC50 (MCF7): 6.32; pIC50 (KB): 6.51; pIC50 (P388): > 6.28; pIC50 (HCT-8): 6.49
CC(=O)OC(C)c1cc2c(s1)C(=O)c1ccsc1C2=O (configuration not stated)	0.011 µM	0.16 µM	< 0.01 µM	< 0.01 µM	0.014 µM	0.15 µM	< 0.01 µM	< 0.01 µM	0.036 µM	< 0.01 µM	0.019 µM		0.026 µM	< 0.01 µM	0.017 µM	0.013 µM	0.025 µM	GI50 (BT-549 [3]): 0.046 µM
CC(=O)c1cc2c(s1)C(=O)c1ccsc1C2=O	0.15 µM	0.16 µM	0.037 µM	0.045 µM	0.023 µM	0.16 µM	0.025 µM	0.117 µM	0.3 µM	0.037 µM	0.16 µM	0.18 µM	0.2 µM	0.16 µM	0.21 µM	0.13 µM	0.13 µM	
